Data as given in US11053241B2, “TYK2 inhibitors and uses thereof” (Nimbus Lakshmi, Inc., priority 2018, dated 2021).

How the values were obtained:
[1] = tested on: IL-12 induced STAT4 phophorylation mediated by TYK2/JAK2 (heterodimeric complex); experiment: IL-12 Induced pSTAT4 in Human PBMC; type: cell-based; conditions: 1.7 ng/mL IL-12 for 30 minutes, 1 hr compound preincubation
Protocol: (§1) Human PBMC were isolated from buffy coat and were stored frozen for assays as needed. Cells for assay were thawed and resuspended in complete media containing serum, then cells were diluted to 1.67 E6 cells/mL so that 120 μl per well is 200,000 cells. 15 μl of compound or DMSO was added to the well at the desired concentrations and incubated at 1 hr at 37 C. 15 μl of stimulus (final concentration of 1.7 ng/mL IL-12) was added for 30 minutes prior to pSTAT4 and total STAT4 analysis using cell lysates prepared and analyzed by MSD reagents as per manufacturer protocol. The final DMSO concentration of compound in the assay was 0.1%.
The IL-12 Induced pSTAT4 assay evaluates the inhibition of IL-12 induced STAT4 phophorylation mediated by TYK2/JAK2 (heterodimeric complex).

[2] = molecular target: human TYK2 (JH2domain-pseudokinase) (Homo sapiens (Human), UniProt P29597); experiment: TYK2 JH2 Domain Binding Assay (KINOMEscan); conditions: 11-point 3-fold dilution, top concentration 30,000 nM, duplicate
Procedure, shortened: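 Competition binding used an NFkB-DNA-tagged fusion of TYK2 JH2 (G556–D888) expressed in HEK293 extracts against an immobilised ligand, 1 h at room temperature. Bead-bound kinase was quantified by qPCR. Kd came from an 11-point 3-fold series with a 30,000 nM top concentration and 0.9% DMSO, Hill slope −1, run in duplicate.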

[3] = tested on: GM-CSF induced STAT5 phopsphorylation mediated by the JAK2/JAK2 homodimeric complex; experiment: GM-CSF Induced pSTAT5 in Human PBMC; type: cell-based; conditions: 20 min, GM-CSF 5 ng/mL for 20 minutes, read-out: PBMC_GMCSF_pSTAT5 IC50
Protocol: as §1
Cells were prepared for analysis as in the above procedure and 15 μl of GM-CSF (final concentration 5 ng/mL) was added for 20 minutes prior to pSTAT5 and total STAT5 analysis using cell lysates prepared and analyzed by MSD reagents as per manufacturer protocol. The final DMSO concentration of compound in the assay was 0.1%.
The GM-CSF Induced pSTAT5 assay is a JAK2 cellular selectivity assay which evaluates inhibition of GM-CSF induced STAT5 phopsphorylation mediated by the JAK2/JAK2 homodimeric complex.

[4] = molecular target: TYK2 kinase domain (JH1) (Homo sapiens (Human), UniProt P29597); experiment: TYK2 Radioactive Kinase Assay; type: biochemical; conditions: compound at 10 μM; ATP at 10 μM; 120 min at room temp
Protocol: (§2) Peptide substrate, [KKSRGDYMTMQIG], (20 μM) was prepared in reaction buffer (20 mM Hepes pH 7.5, 10 mM MgCl2, 1 mM EGTA, 0.02% Brij35, 0.02 mg/mL BSA, 0.1 mM […], 2 mM DTT, 1% DMSO). TYK2 (Invitrogen) kinase was added, followed by compounds in DMSO. ^33PATP was added to initiate the reaction in ATP at 10 μM. The kinase reaction was incubated for 120 min at room temp and reactions were spotted onto P81 ion exchange paper (Whatman #3698-915), and then washed extensively in 0.75% phosphoric acid, prior to reading the radioactivity counts. For JAK2 (Invitrogen) kinase assay the peptide substrate poly[Glu:Tyr](4:1), 0.2 mg/ml was used, in the reaction carried out the same as for TYK2.
(§3) The TYK2 and JAK2 radioactive kinase assay measures the percent inhibition at the TYK2 kinase domain (JH1) and the percent inhibition at the JAK2 kinase domain (JH1). Results of the assay are expressed as percent inhibition at 10 μM.

[5] = molecular target: JAK2 kinase domain (JH1) (Homo sapiens (Human), UniProt O60674); experiment: JAK2 Radioactive Kinase Assay; type: biochemical; conditions: compound at 10 μM; ATP at 10 μM; substrate poly[Glu:Tyr](4:1)
Protocol: as §2, §3

Sequence of JAK2 kinase domain (JH1) (O60674 849-1124): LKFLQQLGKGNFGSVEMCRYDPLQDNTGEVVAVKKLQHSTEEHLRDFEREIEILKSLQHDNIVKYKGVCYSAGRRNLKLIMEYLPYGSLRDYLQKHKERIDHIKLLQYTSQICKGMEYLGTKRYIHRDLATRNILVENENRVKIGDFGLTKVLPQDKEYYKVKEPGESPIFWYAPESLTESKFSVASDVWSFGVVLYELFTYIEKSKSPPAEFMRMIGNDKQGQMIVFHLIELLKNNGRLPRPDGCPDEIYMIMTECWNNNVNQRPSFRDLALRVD
Sequence of TYK2 kinase domain (JH1) (P29597 897-1176): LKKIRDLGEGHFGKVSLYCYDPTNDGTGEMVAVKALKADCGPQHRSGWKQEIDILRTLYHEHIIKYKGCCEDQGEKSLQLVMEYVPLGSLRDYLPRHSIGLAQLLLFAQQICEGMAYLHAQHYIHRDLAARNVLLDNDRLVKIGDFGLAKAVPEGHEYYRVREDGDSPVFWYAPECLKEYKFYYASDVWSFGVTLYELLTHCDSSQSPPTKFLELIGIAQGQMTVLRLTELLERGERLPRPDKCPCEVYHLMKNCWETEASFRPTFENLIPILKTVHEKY
Sequence of human TYK2 (JH2domain-pseudokinase) (P29597 556-888): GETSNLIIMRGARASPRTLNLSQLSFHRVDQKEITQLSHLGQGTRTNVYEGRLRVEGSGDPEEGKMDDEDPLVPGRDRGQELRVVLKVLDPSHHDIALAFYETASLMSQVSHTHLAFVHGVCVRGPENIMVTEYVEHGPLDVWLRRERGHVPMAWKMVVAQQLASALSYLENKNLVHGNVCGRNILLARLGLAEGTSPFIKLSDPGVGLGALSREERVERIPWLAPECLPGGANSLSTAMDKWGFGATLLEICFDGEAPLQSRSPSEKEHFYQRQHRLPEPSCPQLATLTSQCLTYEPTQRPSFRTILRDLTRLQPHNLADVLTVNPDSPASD

Compound	IC50 [1] [µM]	Kd [2] [µM]	IC50 [3] [µM]	inhibition at 10 µM [4] [%]	inhibition at 10 µM [5] [%]
CNC(=O)c1cnc(NC(=O)C2CC2)c2[nH]c(-c3ccccc3N3CCCS3(=O)=O)cc12 [Compound I-4, 7-(cyclopropanecarboxamido)-2-(2-(1,1-dioxidoisothiazolidin-2-yl)phenyl)-N-methyl-1H-pyrrolo[2,3-c]pyridine-4-carboxamide]	< 0.1	< 0.0002	> 12.5	< 50	< 50
CNC(=O)c1cnc(NC(=O)C2CC2)c2[nH]c(-c3ccc(C(=O)N4CCC4)cc3F)cc12 [Compound I-42, 2-(4-(azetidine-1-carbonyl)-2-fluorophenyl)-7-(cyclopropanecarboxamido)-N-methyl-1H-pyrrolo[2,3-c]pyridine-4-carboxamide]	< 0.1	< 0.0002	–	–	–
CNC(=O)c1cnc(NC(=O)C2CC2)c2[nH]c(-c3ccc(C(=O)N4CCC4)cc3OC)cc12 [Compound I-24, 2-(4-(azetidine-1-carbonyl)-2-methoxyphenyl)-7-(cyclopropanecarboxamido)-N-methyl-1H-pyrrolo[2,3-c]pyridine-4-carboxamide]	< 0.1	< 0.0002	–	< 50	< 50
CNC(=O)c1cnc(NC(=O)C2CC2)c2[nH]c(-c3cccn(-c4ncc(C)s4)c3=O)cc12 [Compound I-54, 7-(cyclopropanecarboxamido)-N-methyl-2-(1-(5-methylthiazol-2-yl)-2-oxo-1,2-dihydropyridin-3-yl)-1H-pyrrolo[2,3-c]pyridine-4-carboxamide]	0.1 to 0.5	< 0.0002	–	–	–
CNC(=O)c1cnc(NC(=O)C2CC2)c2[nH]c(-c3cccc(-c4ncco4)c3F)cc12 [Compound I-23, 7-(cyclopropanecarboxamido)-2-(2-fluoro-3-(oxazol-2-yl)phenyl)-N-methyl-1H-pyrrolo[2,3-c]pyridine-4-carboxamide]	< 0.1	< 0.0002	> 50	< 50	< 50

The remaining lines, values ahead:

IC50 [1] [µM]	Kd [2] [µM]	IC50 [3] [µM]	inhibition at 10 µM [4] [%]	inhibition at 10 µM [5] [%]	Compound
< 0.1	< 0.0002	–	–	–	CNC(=O)c1cnc(NC(=O)C2CC2)c2[nH]c(-c3cccc(-c4nnn(C)n4)c3F)cc12 [Compound I-52, 7-(cyclopropanecarboxamido)-2-(2-fluoro-3-(2-methyl-2H-tetrazol-5-yl)phenyl)-N-methyl-1H-pyrrolo[2,3-c]pyridine-4-carboxamide]
0.5 to 1	0.001 to 0.01	> 50	< 50	< 50	CNC(=O)c1cnc(NC(=O)C2CC2)c2[nH]c(-c3ccccc3)cc12 [Compound I-1, 7-(cyclopropanecarboxamido)-N-methyl-2-phenyl-1H-pyrrolo[2,3-c]pyridine-4-carboxamide]
< 0.1	< 0.0002	> 50	< 50	< 50	CNC(=O)c1cnc(NC(=O)C2CC2)c2[nH]c(-c3cccc(-c4ncn(C)n4)c3)cc12 [Compound I-2, 7-(cyclopropanecarboxamido)-N-methyl-2-(3-(1-methyl-1H-1,2,4-triazol-3-yl)phenyl)-1H-pyrrolo[2,3-c]pyridine-4-carboxamide]
< 0.1	< 0.0002	–	–	–	CNC(=O)c1cnc(NC(=O)C2CC2)c2[nH]c(-c3cccc(-c4cn(C)cn4)c3F)cc12 [Compound I-48, 7-(cyclopropanecarboxamido)-2-(2-fluoro-3-(1-methyl-1H-imidazol-4-yl)phenyl)-N-methyl-1H-pyrrolo[2,3-c]pyridine-4-carboxamide]
< 0.1	< 0.0002	> 0.3	< 50	< 50	CNC(=O)c1cnc(NC(=O)C2CC2)c2[nH]c(-c3cccc(-c4cnn(C)c4)c3F)cc12 [Compound I-19, 7-(cyclopropanecarboxamido)-2-(2-fluoro-3-(1-methyl-1H-pyrazol-4-yl)phenyl)-N-methyl-1H-pyrrolo[2,3-c]pyridine-4-carboxamide]
< 0.1	< 0.0002	> 0.3	> 90	> 90	Cn1cnc(-c2cccc(-c3cc4c(C(N)=O)cnc(NC(=O)C5CC5)c4[nH]3)c2)n1 [Compound I-12, 7-(cyclopropanecarboxamido)-2-(3-(1-methyl-1H-1,2,4-triazol-3-yl)phenyl)-1H-pyrrolo[2,3-c]pyridine-4-carboxamide]
–	0.0002 to 0.001	–	< 50	< 50	CNC(=O)c1cnc(NC(=O)C2CC2)c2[nH]c(-c3cccc(-n4cnnc4)c3)cc12 [Compound I-18, 2-(3-(4H-1,2,4-triazol-4-yl)phenyl)-7-(cyclopropanecarboxamido)-N-methyl-1H-pyrrolo[2,3-c]pyridine-4-carboxamide]
–	0.0002 to 0.001	–	< 50	< 50	CNC(=O)c1cnc(NC(=O)C2CC2)c2[nH]c(-c3cc(-c4nccs4)ccn3)cc12 [Compound I-14, 7-(cyclopropanecarboxamido)-N-methyl-2-(4-(thiazol-2-yl)pyridin-2-yl)-1H-pyrrolo[2,3-c]pyridine-4-carboxamide]
